Results from patent US7119071B2, “Amino terminal substance P compositions and methods for using the same” (University of Medicine and Dentistry of New Jersey, priority 2002, dated 2006).
Each block holds one substance with its values, some of them ahead of it.

Assays:
Format in all cases: cell-based, human
TGF-β in BM stroma = assay: Induction of TGF-β in BM stroma (CCL 64 growth inhibition bioassay); settings: for TGF-β (pg/ml) 2nd stimulation: BM stroma re-stimulated for 16 h after 16 h 1st stimulation; for TGF-β (pg/ml) 2nd stimulation / TGF-β (pg/ml) 1st stimulation: 10 nM SP(1-4) or 10 ng/ml SCF; for TGF-β (pg/ml) 1st stimulation: BM stroma, 16 h, secreted and cell-bound, mean±SD
Procedure: (§1) Stromal cultures were prepared with BM aspirates from healthy donors as described^24. Briefly, stromal cells were cultured at 33° C. and at day 3, the granulocytes and red blood cells were removed by Ficoll-Hypaque density gradient. Cultures were reincubated with weekly replacement of 50% culture media until confluence. Cytokine, NK receptor and c-kit expressions were studied in confluent stroma, stimulated with 10 nM SP(1-4) and/or 10 ng/ml SCF. Stroma was stimulated in 3 ml sera-free cc-MEM, supplemented with insulin-transferring-selenium-A (Life Technologies, Grand Island, N.Y.). At 16 h, stromal monolayers were washed with sera-free α-MEM and then re-incubated for 16 h with media, 10 nM SP(1-4) or 10 ng/ml SCF. Controls included stroma cultured for 16 h or 32 h in media alone. Time-course and dose-response curves established the optimal concentrations of SCF and SP(1-4).
Growth inhibition of CCL 64 cells forms the basis of the bioassay used to quantitate active TGF-β^25. Each sample was tested in triplicate with […] of supernatants. TGF-β levels were determined from a standard curve established with TGF-β concentrations ranging from 0.001 to 10 ng/ml vs. cell concentration. The presence of TGF-β1 was verified by reanalyses of samples containing >20 ng/ml TGF-β with neutralizing anti-hTGF-β1^25. Neutralization was determined if the anti-TGF-β1 reversed the growth inhibitory effect of the supernatants. • 1. Biopanning of Phage Display Library and Selection of Clones
BM stroma was stimulated with 10 nM SP(1-4) or 10 ng/ml SCF (1st stimulation). After 16 h, cells were harvested or cultures were re-stimulated for 16 h (2nd stimulation) with 10 nM SP(1-4) or 10 ng/ml SCF. TGF-β and TNF-α levels were determined in the total volume of supernatants and cell extracts, obtained from one flask of stromal cells. The results are represented as the mean±SD of the total concentration (secreted and cell-bound/106 stromal cells). p<0.05 vs. unstimulated or SCF.

NK-1 mRNA = assay: Quantitative RT-PCR for NK-1 mRNA in BM stroma; settings: n=6; for NK-1 mRNA, 2nd stimulation: BM stroma washed and re-stimulated for 16 h after 16 h 1st stimulation; for NK-1 mRNA, 1st stimulation: BM stroma, 10 nM SP(1-4) or 10 ng/ml SCF for 16 h, mean±SD
Procedure: as §1
(§2) Quantitative RT-PCR for NK-1, NK-2 and β-PPT-I mRNA was performed as described^3, 24. Briefly, 2 μg of total RNA from BM stroma was reverse transcribed and 200 ng cDNA used in PCR reactions with standard DNA at log10 fold dilutions ranging between 10^−2 and 10^−6 attomole/L. PCR products (10 μl) were separated on agarose containing ethidium bromide. The DNA was scanned with a Fluorimager (Molecular Dynamics, Sunnyvale, Calif.) and the densities analyzed with ImageQuant software (Molecular Dynamics, version 5.2). A standard curve was established for each unknown sample: Band densities of unknown/standard DNA vs. Log10 standard DNA concentration. The concentration of the unknown sample was read at the point where the ratio of the unknown and standard were equivalent. Construction of DNA standards was previously described^24. • 1. Immunofluorescence for NK Receptors
(§3) BM stroma was stimulated with 10 nM SP(1-4) or 10 ng/ml SCF for 16 h (1st stimulation). After this, cultures were washed and then re-stimulated further for 16 h with similar concentrations of SP(1-4) or SCF (2nd stimulation). NK-1, NK-2 and β-PPT-I mRNA levels were quantitative by RT-PCR. The results are represented as the mean±SD, n=6. Each experiment was performed with a different BM donor. p<0.05: * vs. unstimulated or SP(1-4). […]: ** vs. unstimulated or SP(1-4).

NK-2 mRNA = assay: Quantitative RT-PCR for NK-2 mRNA in BM stroma; settings: n=6; for NK-2 mRNA, 2nd stimulation: BM stroma washed and re-stimulated for 16 h after 16 h 1st stimulation; for NK-2 mRNA, 1st stimulation: BM stroma, 10 nM SP(1-4) or 10 ng/ml SCF for 16 h, mean±SD
Procedure: as §1, §2, §3

β-PPT-I mRNA = assay: Quantitative RT-PCR for β-PPT-I mRNA in BM stroma; settings: n=6; for β-PPT-I mRNA, 2nd stimulation: BM stroma washed and re-stimulated for 16 h after 16 h 1st stimulation; for β-PPT-I mRNA, 1st stimulation: BM stroma, 10 nM SP(1-4) or 10 ng/ml SCF for 16 h, mean±SD
Procedure: as §1, §2, §3

SP-IR = assay: Competitive ELISA for SP-immunoreactivity (SP-IR) in stimulated BM stroma; settings: 10 ng/ml SCF, 5×10^6 stroma
Procedure: Competitive ELISA quantitated SP-IR as described^3. Briefly, Immulon 96-well plates (Dynatech Laboratories Inc., Chantilly, Va.) were precoated with streptavidin and then incubated with biotinylated SP (Chiron Mimotopes, Emeryville, Calif.). Equal volumes (50 μl) of unknown samples and optimum rabbit anti-SP were added to quadruplicate wells. Each sample was assayed as undiluted and three serial dilutions. Complexed anti-SP was detected with Alk Phos-conjugated goat anti-rabbit IgG and Sigma 104 phosphatase substrate. SP-IR levels were calculated from a standard curve developed with O.D. at 405 nm vs. 12 serial dilutions of known SP concentrations, ranging from 100 to 0.08 pg/ml.
Total RNA from unstimulated and stimulated (10 ng/ml SCF) BM stroma was analyzed for steady state NEP mRNA levels by northern analyses. The results shown in FIG. 4A indicate single bands at the predicted size of 1.8 kb. […] Analyses for SP and SP(1-4) were performed at different times using Ciphergen's ProteinChip Arrays. ELISA determined the levels of SP-IR in the supernatant and cell extracts of the stimulated stroma (5×10^6 stroma). An affinity protein chip with mobilized anti-SP determined the presence of SP(1-4) in extracts from 48 h-stimulated stroma. […] At 24 h, the total levels of SP-IR (supernatants and cell extracts) in stimulated stroma were 185±8 ng. SP levels were reduced to 12±5 ng at 48 h and to baseline levels (<2 ng) at 72 h (Table 3).

NEP mRNA = assay: Northern analysis of steady state NEP mRNA in BM stroma; settings: 10 ng/ml SCF, FIG. 4A
Procedure: Northern analyses for steady state NEP and NK-1 mRNA were performed as described^28. For NEP mRNA, stromal cells were stimulated with SCF for 16 h in sera-free α-MEM supplemented with Insulin-Transferring-Selenium-A. At different times after, total RNA was extracted and 10 μg used for northern analyses. Membranes were consecutively hybridized with [α-^32P]-dATP-labeled cDNA probes for NEP and 18S rRNA as described^3. NK-1 mRNA was determined with total RNA from stromal cultures that were sequentially stimulated with SCF and SP(1-4), described above. The cDNA for NK-1 is previously described^29. NK-2 cDNA was prepared by RT-PCR with total RNA from BM stroma as template and the same primers used for quantitative RT-PCR (described above). The NK-2 fragment, which was equivalent to 274 bp was subcloned into pNoTA/T7 (5 Prime→3 Prime, Boulder, Colo.). The cDNA for human NEP sand 18S rRNA were purchased from American Type Culture Collection (Manassas, Va.).
Total RNA from unstimulated and stimulated (10 ng/ml SCF) BM stroma was analyzed for steady state NEP mRNA levels by northern analyses. The results shown in FIG. 4A indicate single bands at the predicted size of 1.8 kb. […] Analyses for SP and SP(1-4) were performed at different times using Ciphergen's ProteinChip Arrays. ELISA determined the levels of SP-IR in the supernatant and cell extracts of the stimulated stroma (5×10^6 stroma). […]

NK-1 receptor = assay: Immunofluorescence for SP-binding sites (NK-1) in BM stroma; settings: 10 ng/ml SCF and/or 10 nM SP(1-4), FIG. 2
Procedure: (§4) BM stroma was stimulated with 10 ng/ml of SCF. At 24 h, cells were washed and then immediately incubated at 4° C. for 2 h with 200 ng/ml of biotin-SP or biotin-NK-A. After this, cells were labeled with FITC-avidin for 30 min and then examined for fluorescence intensity with an Olympus Provis AX-70 at 480±40 nm/excitation and 535±50 nm/emission. […] The optimal experimental conditions were determined in dose-response and time-course studies. Specificity of binding by SP or NK-A was studied in competition labeling with the pan-tachykinin antagonist, spantide. • 2. TNF-α determination
(§5) Since NK-1 and NK-2 receptors mediated the hematopoietic effects of the tachykinins^5, this section describes the studies and their results designed to further determine the interacting receptor for SP(1-4). Due to the lack of specific antibodies to the human NK-1 and NK-2 receptors, their detection by immunofluorescence was performed with the preferred ligand that was conjugated to biotin: SP for NK-1 and NK-A for NK-2^12. Spantide, a pan-tachykinin antagonist that competes with the ligand for NK receptor binding was used to determine the specificity of binding.

NK-2 receptor = assay: Immunofluorescence for NK-A-binding sites (NK-2) in BM stroma; settings: 10 ng/ml SCF and/or 10 nM SP(1-4), FIG. 2
Procedure: as §4, §5

c-kit = assay: Immunofluorescence for c-kit in BM stroma; settings: 10 ng/ml SCF, 6 h to 24 h, dim in unstimulated stroma
Procedure: The relative expression of c-kit in BM stroma was determined by immunofluorescence. BM stroma was cultured on coverslips (Fisher Scientific, Springfield, N.J.) and then stimulated with 10 ng/ml of SCF. At different times after cell stimulation, cells were labeled with 50 ng/ml of biotinylated goat anti-c-kit and FITC-avidin. Non-specific binding was determined with biotinylated non-immune goat anti-IgG. Cells were immediately examined on an OlympusProbis microscope (New York/New Jersey Scientific, Inc., Middlebush, N.J.).

CFU-GM = assay: Clonogenic assay for CFU-GM in sera-free cultures; settings: n=7
Procedure: BM aspirate was obtained from the posterior iliac crest of normal healthy volunteers. Mononuclear cells were isolated by Ficoll-Hypaque density gradient and then assayed for CFU-GM in sera-free cultures as described^3. Briefly, 10^5 BM mononuclear cells/ml were plated in methylcellulose with 10 or 1 nM of SP(1-4). Each experimental point was assayed in duplicate. Cultures were assayed in parallel in the presence or absence of anti-TGF-β or anti-TNF-α, each ranging between 2 μg/ml and 10 ng/ml. Cultures contained 3 U/ml of rhGM-CSF. At day 10, the number of colonies with >20 cells were counted.

Substance: SCF→SCF: 1st and 2nd stimulation with 10 ng/ml SCF
TGF-β (pg/ml) 2nd stimulation (TGF-β in BM stroma): <5 pg/mL | NK-1 mRNA, 2nd stimulation (NK-1 mRNA): *1480 ± 34 molecules/μg total RNA | NK-2 mRNA, 2nd stimulation (NK-2 mRNA): 10 ± 2 | β-PPT-I mRNA, 2nd stimulation (β-PPT-I mRNA): 45 ± 4

Substance: SP(1-4)→SP(1-4): 1st and 2nd stimulation with 10 nM SP(1-4) (RPKP; Substance P; UniProt P20366 58-61, looked up, fragment)
TGF-β levels after 2nd stimulation (TGF-β in BM stroma; 1st stimulation SP(1-4), 2nd stimulation 16 h later, text citing Table 1): 64 ± 4 pg | TGF-β (pg/ml) 2nd stimulation (TGF-β in BM stroma): *64 ± 4 pg/ml | NK-1 mRNA, 2nd stimulation (NK-1 mRNA): <1 molecules/μg total RNA | NK-2 mRNA, 2nd stimulation (NK-2 mRNA): **484 ± 10 | β-PPT-I mRNA, 2nd stimulation (β-PPT-I mRNA): <1

NK-1 expression (biotin-SP binding) (NK-1 receptor): SP binds to stromal cells | NK-2 expression (biotin-NK-A binding) (NK-2 receptor): did not bind
Substance: SCF: stem cell factor, hematopoietic stimulator cytokine purchased from R&D Systems
TGF-β (pg/ml) 1st stimulation (TGF-β in BM stroma): <5 pg/mL | NK-1 mRNA, 2nd stimulation (NK-1 mRNA): 1480±34 molecules/μg total RNA | NK-1 mRNA, 1st stimulation (NK-1 mRNA): *1550 ± 26 molecules/μg total RNA | NK-2 mRNA, 1st stimulation (NK-2 mRNA): 17 ± 3 | β-PPT-I mRNA, 1st stimulation (β-PPT-I mRNA): 640 ± 15 | total levels of SP-IR (supernatants and cell extracts) (SP-IR; 24 h, unstimulated <2 ng): 185 ± 8 ng | total levels of SP-IR (supernatants and cell extracts) (SP-IR; 48 h): 12 ± 5 ng | total levels of SP-IR (supernatants and cell extracts) (SP-IR; 72 h): < 2 ng | steady state NEP mRNA (northern band) (NEP mRNA; 16 h and 24 h): Strong bands | steady state NEP mRNA (northern band) (NEP mRNA; 48 h): no detectable band | fluorescence intensity of c-kit labeling (c-kit): increased to bright

Substance: Arg-Pro-Lys-Pro (RPKP; listed as Homo sapiens) [SP(1-4), tetrapeptide resulting from degradation of SP by endopeptidases such as NEP]
TGF-β, stimulated BM stroma (TGF-β in BM stroma; 1st stimulation, text citing Table 1): 90 ± 15 pg | TGF-β (pg/ml) 1st stimulation (TGF-β in BM stroma): *90 ± 15 pg/ml | percent inhibition on CFU-GM (CFU-GM; 1 nM SP(1-4)): 55±4% | percent inhibition on CFU-GM (CFU-GM; 10 nM SP(1-4)): 65±6% | NK-1 mRNA, 1st stimulation (NK-1 mRNA): <1 molecules/μg total RNA | NK-2 mRNA, 1st stimulation (NK-2 mRNA): **510 ± 15 | β-PPT-I mRNA, 1st stimulation (β-PPT-I mRNA): <1
